{"source": "paper PMC5218480", "about": "(PLoS ONE, 2017)", "system": "MV-4-11 cells", "test": "Gene expression microarray analysis (Affymetrix PrimeView) and GSEA", "format": "cell-based, human", "set-up": "RFU PODN (11730768_x_at) / Fold change /veh PODN (11730768_x_at) / RFU LINC00158 (11744669_a_at) / Fold change /veh LINC00158 (11744669_a_at) / RFU DUSP10 (11751237_a_at) / Fold change /veh DUSP10 (11751237_a_at) / RFU ID3 (11757404_x_at) / Fold change /veh ID3 (11757404_x_at) / RFU PLEKHG5 (11737974_s_at) / Fold change /veh PLEKHG5 (11737974_s_at) / RFU LRRC4B (11730491_at) / Fold change /veh LRRC4B (11730491_at) / RFU GIMAP4 (11747438_a_at) / Fold change /veh GIMAP4 (11747438_a_at) / RFU KRT8 (11758183_x_at) / Fold change /veh KRT8 (11758183_x_at) / RFU CNN1 (11734310_a_at) / Fold change /veh CNN1 (11734310_a_at) / RFU VPS37D (11726825_at) / Fold change /veh VPS37D (11726825_at) / RFU C10orf10 (11716522_x_at) / Fold change /veh C10orf10 (11716522_x_at) / RFU KIR2DL2 /// KIR2DL4 /// KIR2DL5A /// KIR2DL5B /// KIR2DS1 /// KIR2DS2 /// KIR2DS3 /// KIR2DS4 /// KIR3DL3 /// KIR3DL3 /// KIR3DS1 (11738374_at) / Fold change /veh KIR2DL2 /// KIR2DL4 /// KIR2DL5A /// KIR2DL5B /// KIR2DS1 /// KIR2DS2 /// KIR2DS3 /// KIR2DS4 /// KIR3DL3 /// KIR3DL3 /// KIR3DS1 (11738374_at) / RFU C1QL1 (11718748_at) / Fold change /veh C1QL1 (11718748_at) / RFU TMPRSS4 (11747572_a_at) / Fold change /veh TMPRSS4 (11747572_a_at) / RFU HAMP (11756126_x_at) / Fold change /veh HAMP (11756126_x_at) / RFU RNFT2 (11725882_a_at) / Fold change /veh RNFT2 (11725882_a_at) / RFU NR4A2 (11747474_a_at) / Fold change /veh NR4A2 (11747474_a_at) / RFU ABCC12 (11746883_a_at) / Fold change /veh ABCC12 (11746883_a_at) / RFU TMEM136 (11760407_x_at) / Fold change /veh TMEM136 (11760407_x_at) / RFU CLDN22 /// WWC2 (11732394_at) / Fold change /veh CLDN22 /// WWC2 (11732394_at) / RFU HLA-DPB1 (11760878_x_at) / Fold change /veh HLA-DPB1 (11760878_x_at) / RFU SPINT1 (11716480_a_at) / Fold change /veh SPINT1 (11716480_a_at) / RFU GAP43 (11754022_s_at) / Fold change /veh GAP43 (11754022_s_at) / RFU A4GNT (11735810_at) / Fold change /veh A4GNT (11735810_at) / RFU PRB3 (11715151_x_at) / Fold change /veh PRB3 (11715151_x_at) / RFU TUBB4B (11761932_at) / Fold change /veh TUBB4B (11761932_at) / RFU CAPN14 (11732068_a_at) / Fold change /veh CAPN14 (11732068_a_at) / RFU TMCC2 (11721928_a_at) / Fold change /veh TMCC2 (11721928_a_at) / RFU IRGQ (11745062_a_at) / Fold change /veh IRGQ (11745062_a_at) / RFU FAM174B (11720279_a_at) / Fold change /veh FAM174B (11720279_a_at) / RFU TMPRSS4 (11748680_a_at) / Fold change /veh TMPRSS4 (11748680_a_at) / RFU FAM212B (11763350_a_at) / Fold change /veh FAM212B (11763350_a_at) / RFU PLEKHG5 (11743358_a_at) / Fold change /veh PLEKHG5 (11743358_a_at) / RFU ZSCAN30 (11745921_a_at) / Fold change /veh ZSCAN30 (11745921_a_at) / RFU CMKLR1 (11741424_a_at) / Fold change /veh CMKLR1 (11741424_a_at) / RFU LOC101060620 /// MAPK8IP1 (11723275_at) / Fold change /veh LOC101060620 /// MAPK8IP1 (11723275_at) / RFU SPTSSB (11747773_x_at) / Fold change /veh SPTSSB (11747773_x_at) / RFU PRSS12 (11739890_at) / Fold change /veh PRSS12 (11739890_at) / RFU BIN1 (11741810_x_at) / Fold change /veh BIN1 (11741810_x_at) / RFU WNT11 (11732464_a_at) / Fold change /veh WNT11 (11732464_a_at) / RFU C10orf10 (11716521_a_at) / Fold change /veh C10orf10 (11716521_a_at) / RFU C5orf56 (11738089_at) / Fold change /veh C5orf56 (11738089_at) / RFU CYB561 (11721691_x_at) / Fold change /veh CYB561 (11721691_x_at) / RFU ANKRD19P (11752326_a_at) / Fold change /veh ANKRD19P (11752326_a_at) / RFU OR2T12 /// OR2T33 /// OR2T8 (11738714_s_at) / Fold change /veh OR2T12 /// OR2T33 /// OR2T8 (11738714_s_at) / RFU VCAN (11748164_a_at) / Fold change /veh VCAN (11748164_a_at) / RFU JSRP1 (11732532_at) / Fold change /veh JSRP1 (11732532_at) / RFU KRTAP10-11 (11738290_x_at) / Fold change /veh KRTAP10-11 (11738290_x_at) / RFU MYO3A (11730013_a_at) / Fold change /veh MYO3A (11730013_a_at) / RFU EBF3 (11725865_a_at) / Fold change /veh EBF3 (11725865_a_at) / RFU CAMK2N1 (11719241_x_at) / Fold change /veh CAMK2N1 (11719241_x_at) / RFU C5orf56 (11738088_a_at) / Fold change /veh C5orf56 (11738088_a_at) / RFU OLFML3 (11715873_a_at) / Fold change /veh OLFML3 (11715873_a_at) / RFU LOC100653217 /// NTM (11731650_a_at) / Fold change /veh LOC100653217 /// NTM (11731650_a_at) / RFU MAPK11 (11762145_a_at) / Fold change /veh MAPK11 (11762145_a_at) / RFU FIZ1 (11724087_x_at) / Fold change /veh FIZ1 (11724087_x_at) / RFU OASL (11726364_x_at) / Fold change /veh OASL (11726364_x_at) / RFU SOX15 (11748057_x_at) / Fold change /veh SOX15 (11748057_x_at) / RFU CD79A (11719716_a_at) / Fold change /veh CD79A (11719716_a_at) / RFU HIST1H1D (11736915_at) / Fold change /veh HIST1H1D (11736915_at) / RFU CASKIN2 (11723855_a_at) / Fold change /veh CASKIN2 (11723855_a_at) / RFU LOC730098 (11760151_x_at) / Fold change /veh LOC730098 (11760151_x_at) / RFU OR4N2 (11742367_at) / Fold change /veh OR4N2 (11742367_at) / RFU PRRT2 (11749266_a_at) / Fold change /veh PRRT2 (11749266_a_at) / RFU SNX32 (11753110_a_at) / Fold change /veh SNX32 (11753110_a_at) / RFU CDHR5 (11726645_a_at) / Fold change /veh CDHR5 (11726645_a_at) / RFU RCAN1 (11760418_a_at) / Fold change /veh RCAN1 (11760418_a_at) / RFU FAM167A (11723789_a_at) / Fold change /veh FAM167A (11723789_a_at) / RFU FAM26E (11764081_at) / Fold change /veh FAM26E (11764081_at) / RFU ISYNA1 (11749810_s_at) / Fold change /veh ISYNA1 (11749810_s_at) / RFU ACY1 (11761880_at) / Fold change /veh ACY1 (11761880_at) / RFU 11764098_at / Fold change /veh 11764098_at / RFU SAMD14 (11745864_x_at) / Fold change /veh SAMD14 (11745864_x_at) / RFU NPB (11741838_a_at) / Fold change /veh NPB (11741838_a_at) / RFU TMPRSS6 (11731388_a_at) / Fold change /veh TMPRSS6 (11731388_a_at) / RFU KRTAP10-2 (11738614_at) / Fold change /veh KRTAP10-2 (11738614_at) / RFU ARHGAP8 /// PRR5-ARHGAP8 (11727945_x_at) / Fold change /veh ARHGAP8 /// PRR5-ARHGAP8 (11727945_x_at) / RFU KRTAP5-7 /// NADSYN1 (11734609_at) / Fold change /veh KRTAP5-7 /// NADSYN1 (11734609_at) / RFU RASL12 (11751679_a_at) / Fold change /veh RASL12 (11751679_a_at) / RFU CDKN2B (11736163_a_at) / Fold change /veh CDKN2B (11736163_a_at) / RFU PRF1 (11729649_at) / Fold change /veh PRF1 (11729649_at) / RFU, ZNF638 /// ZNF638-IT1 / Fold change vs veh, ZNF638 /// ZNF638-IT1 / RFU, PANK3 / Fold change vs veh, PANK3 / RFU, SH3YL1 / Fold change vs veh, SH3YL1 / RFU, ZEB2 / Fold change vs veh, ZEB2 / RFU, NRIP1 / Fold change vs veh, NRIP1 / RFU, PTTG1IP / Fold change vs veh, PTTG1IP / RFU, CAPN2 / Fold change vs veh, CAPN2 / RFU, MED14 / Fold change vs veh, MED14 / RFU, SNORA58 / Fold change vs veh, SNORA58 / RFU, C1orf63 / Fold change vs veh, C1orf63 / RFU, LRRFIP1 / Fold change vs veh, LRRFIP1 / RFU, NDUFAF7 / Fold change vs veh, NDUFAF7 / RFU, SLC12A2 / Fold change vs veh, SLC12A2 / RFU, IBTK / Fold change vs veh, IBTK / RFU, ESF1 / Fold change vs veh, ESF1 / Fold change vs veh, TMEM50B / RFU, TAOK1 / Fold change vs veh, TAOK1 / RFU, ACBD3 / Fold change vs veh, ACBD3 / RFU, TMA16 / Fold change vs veh, TMA16 / RFU, RWDD3 / Fold change vs veh, RWDD3 / RFU, BCAT1 / Fold change vs veh, BCAT1 / RFU, EDEM3 / Fold change vs veh, EDEM3 / RFU, TMEM33 / Fold change vs veh, TMEM33 / RFU, WDR75 / Fold change vs veh, WDR75 / RFU, AHCTF1 / Fold change vs veh, AHCTF1 / RFU, TFRC / Fold change vs veh, TFRC / RFU, ZDHHC17 / Fold change vs veh, ZDHHC17 / RFU, NOM1 / Fold change vs veh, NOM1 / RFU, ARL8B / Fold change vs veh, ARL8B / RFU, ZBTB11 / Fold change vs veh, ZBTB11 / RFU, TAMM41 / Fold change vs veh, TAMM41 / RFU, KIAA1704 /// LOC100996395 / Fold change vs veh, KIAA1704 /// LOC100996395 / RFU, ING1 / Fold change vs veh, ING1 / RFU, TRMT61B / Fold change vs veh, TRMT61B / RFU, FUBP3 / Fold change vs veh, FUBP3 / RFU, TP53 / Fold change vs veh, TP53 / RFU, TNKS2 / Fold change vs veh, TNKS2 / RFU, ZFP14 / Fold change vs veh, ZFP14 / RFU, ACTR2 / Fold change vs veh, ACTR2 / RFU, PPP3R1 / Fold change vs veh, PPP3R1 / RFU, PIK3R1 / Fold change vs veh, PIK3R1 / RFU, HNRNPA1 / Fold change vs veh, HNRNPA1 / RFU, RNF170 / Fold change vs veh, RNF170 / RFU, ZNF28 / Fold change vs veh, ZNF28 / RFU, RNGTT / Fold change vs veh, RNGTT / RFU, OGT / Fold change vs veh, OGT / RFU, BRD1 / Fold change vs veh, BRD1 / RFU, MARS / Fold change vs veh, MARS / RFU, ZNF655 / Fold change vs veh, ZNF655 / RFU, FAHD1 / Fold change vs veh, FAHD1 / RFU, BDP1 / Fold change vs veh, BDP1 / RFU, LRRCC1 / Fold change vs veh, LRRCC1 / RFU, ARID1A / Fold change vs veh, ARID1A / RFU, ZNF146 / Fold change vs veh, ZNF146 / RFU, ZNF330 / Fold change vs veh, ZNF330 / RFU, GPN3 / Fold change vs veh, GPN3 / RFU, C9orf123 / Fold change vs veh, C9orf123 / RFU, N4BP2L2 / Fold change vs veh, N4BP2L2 / RFU, ARFIP1 / Fold change vs veh, ARFIP1 / RFU, FAM179B / Fold change vs veh, FAM179B / RFU, BCL10 / Fold change vs veh, BCL10 / RFU, UHRF1BP1L / Fold change vs veh, UHRF1BP1L / RFU, BET1 / Fold change vs veh, BET1 / RFU, CNOT2 / Fold change vs veh, CNOT2 / RFU, ZNF268 / Fold change vs veh, ZNF268 / Fold change vs veh, ZNF507 / RFU, DGCR2 / Fold change vs veh, DGCR2 / RFU, WDSUB1 / Fold change vs veh, WDSUB1 / Fold change vs veh, HSP90B1 /// MIR3652 / RFU, ADSS / Fold change vs veh, ADSS / RFU, GK / Fold change vs veh, GK / RFU, ZNF148 / Fold change vs veh, ZNF148 / RFU, TAF9 / Fold change vs veh, TAF9 / RFU, SLC1A5 / Fold change vs veh, SLC1A5 / RFU, SLMO2 / Fold change vs veh, SLMO2 / RFU, ABCC4 / Fold change vs veh, ABCC4 / RFU, LOC101060439 /// RAP1B / Fold change vs veh, LOC101060439 /// RAP1B / RFU, RFX7 / Fold change vs veh, RFX7 / RFU, GTPBP10 / Fold change vs veh, GTPBP10 / RFU, CNEP1R1 / Fold change vs veh, CNEP1R1 / RFU, BIVM-ERCC5 /// ERCC5 / Fold change vs veh, BIVM-ERCC5 /// ERCC5 / RFU, ILF3 / Fold change vs veh, ILF3 / RFU 11762660_at / Fold change /veh 11762660_at / RFU VCAN (11757783_s_at) / Fold change /veh VCAN (11757783_s_at) / RFU DDX43 (11728927_at) / Fold change /veh DDX43 (11728927_at) / RFU KRT8 (11758188_x_at) / Fold change /veh KRT8 (11758188_x_at) / RFU NKD1 (11759106_at) / Fold change /veh NKD1 (11759106_at) / RFU SRD5A1 (11742802_a_at) / Fold change /veh SRD5A1 (11742802_a_at) / RFU TPSAB1 /// TPSB2 (11721975_s_at) / Fold change /veh TPSAB1 /// TPSB2 (11721975_s_at) / RFU GSTM3 (11746129_a_at) / Fold change /veh GSTM3 (11746129_a_at) / RFU IL23R (11737362_x_at) / Fold change /veh IL23R (11737362_x_at) / RFU TMEM51 (11727254_a_at) / Fold change /veh TMEM51 (11727254_a_at) / RFU PIWIL2 (11732686_x_at) / Fold change /veh PIWIL2 (11732686_x_at) / RFU ORM1 (11744905_x_at) / Fold change /veh ORM1 (11744905_x_at) / RFU CCDC152 (11743942_at) / Fold change /veh CCDC152 (11743942_at) / RFU ECM1 (11717891_a_at) / Fold change /veh ECM1 (11717891_a_at) / RFU IL23R (11748794_a_at) / Fold change /veh IL23R (11748794_a_at) / RFU TNFAIP8L3 (11732012_x_at) / Fold change /veh TNFAIP8L3 (11732012_x_at) / RFU MBOAT4 (11741988_at) / Fold change /veh MBOAT4 (11741988_at) / RFU 11764193_at / Fold change /veh 11764193_at / RFU TMEM53 (11763286_at) / Fold change /veh TMEM53 (11763286_at) / RFU MAGEB2 (11727129_at) / Fold change /veh MAGEB2 (11727129_at) / RFU TMEM200A (11744735_a_at) / Fold change /veh TMEM200A (11744735_a_at) / RFU CCDC152 (11751479_a_at) / Fold change /veh CCDC152 (11751479_a_at) / RFU FAM211A (11726209_a_at) / Fold change /veh FAM211A (11726209_a_at) / RFU RGS16 (11746705_a_at) / Fold change /veh RGS16 (11746705_a_at) / RFU VCAN (11755009_s_at) / Fold change /veh VCAN (11755009_s_at) / RFU RHOB (11743442_s_at) / Fold change /veh RHOB (11743442_s_at) / RFU RGS16 (11720943_a_at) / Fold change /veh RGS16 (11720943_a_at) / RFU RGS16 (11720944_at) / Fold change /veh RGS16 (11720944_at) / RFU, VPS4B / Fold change vs veh, VPS4B / RFU, CREB1 / Fold change vs veh, CREB1 / RFU, DNAJC13 / Fold change vs veh, DNAJC13 / RFU, GNAQ / Fold change vs veh, GNAQ / RFU, CDK5R1 / Fold change vs veh, CDK5R1 / RFU, ZRANB3 / Fold change vs veh, ZRANB3 / RFU, CUL4A / Fold change vs veh, CUL4A / RFU, CCNY / Fold change vs veh, CCNY / RFU, UFL1 / Fold change vs veh, UFL1 / RFU, COG3 / Fold change vs veh, COG3 / RFU, DIAPH2 / Fold change vs veh, DIAPH2 / RFU, SKA2 / Fold change vs veh, SKA2 / RFU, AFF3 / Fold change vs veh, AFF3 / RFU, LMF1 / Fold change vs veh, LMF1 / RFU, IPO11 / Fold change vs veh, IPO11 / RFU, DFFB / Fold change vs veh, DFFB / RFU, FOXP1 / Fold change vs veh, FOXP1 / RFU, CARD8 / Fold change vs veh, CARD8 / RFU, STRN3 / Fold change vs veh, STRN3 / RFU, ADK / Fold change vs veh, ADK / RFU, RASSF2 / Fold change vs veh, RASSF2 / RFU, WIPF1 / Fold change vs veh, WIPF1 / RFU, LARP1B / Fold change vs veh, LARP1B / RFU, RASA1 / Fold change vs veh, RASA1 / RFU, RB1 / Fold change vs veh, RB1 / RFU, PPFIA1 / Fold change vs veh, PPFIA1 / RFU, MAT2A / Fold change vs veh, MAT2A / RFU, CCT5 / Fold change vs veh, CCT5 / RFU, WDR92 / Fold change vs veh, WDR92 / RFU, CUX1 / Fold change vs veh, CUX1 / RFU, TTC7A / Fold change vs veh, TTC7A / RFU, TMEM135 / Fold change vs veh, TMEM135 / RFU, DEPTOR / Fold change vs veh, DEPTOR / RFU, CPM / Fold change vs veh, CPM / RFU, DNAJB6 / Fold change vs veh, DNAJB6 / RFU, CACNA2D3 / Fold change vs veh, CACNA2D3 / RFU, DTX4 / Fold change vs veh, DTX4 / RFU, TFCP2 / Fold change vs veh, TFCP2 / RFU, GMCL1 /// GMCL1P1 / Fold change vs veh, GMCL1 /// GMCL1P1 / RFU, AEBP2 / Fold change vs veh, AEBP2 / RFU, SNHG1 /// SNORD22 /// SNORD25 /// SNORD26 /// SNORD27 /// SNORD28 /// SNORD29 /// SNORD31 / Fold change vs veh, SNHG1 /// SNORD22 /// SNORD25 /// SNORD26 /// SNORD27 /// SNORD28 /// SNORD29 /// SNORD31 / Fold change (Aza/veh), C12orf56 (ProbeSet 11735607_a_at) / Fold change (ACY-1035/veh), C12orf56 (ProbeSet 11735607_a_at) / Fold change (Aza/veh), FGFR1OP (ProbeSet 11751329_s_at) / Fold change (ACY-1035/veh), FGFR1OP (ProbeSet 11751329_s_at) / Fold change (Aza/veh), VPS36 (ProbeSet 11739960_a_at) / Fold change (ACY-1035/veh), VPS36 (ProbeSet 11739960_a_at) / RFU SYPL1 (11715823_x_at) / Fold change /veh SYPL1 (11715823_x_at) / RFU IGFBP7 (11715501_s_at) / Fold change /veh IGFBP7 (11715501_s_at) / RFU REEP3 (11722064_at) / Fold change /veh REEP3 (11722064_at) / RFU IGLL1 (11728026_x_at) / Fold change /veh IGLL1 (11728026_x_at): dose or concentration left out as unconfirmed", "conditions": "ProbeSet 11762504_a_at; LIST D"}
{"compound": "Nc1ccc(-c2cccs2)cc1NC(=O)c1ccc2c(c1)cc(C1CC1)n2CCN1CCOCC1", "note": "[ACY-1035]", "values": [{"measurement": "Fold change vs veh, ZRANB3", "result": 0.86}]}
